These results are taken from patent publication US20230374038A1, “MODULATORS OF CYSTIC FIBROSIS TRANSMEMBRANE CONDUCTANCE REGULATOR” (VERTEX PHARMACEUTICALS INCORPORATED, priority 2020, published 2023).

Like-named read-outs stand apart in the source and are kept apart here.

For one series, the target named is CFTR (Homo sapiens, UniProt P13569). In words: Membrane Potential Dye, Enteroid Assay B. Format: cell-based. The procedure, abridged: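 Membrane-potential fluorescence read over 15 min after chloride-free stimulation (forskolin 10 μM, IBMX 100 μM, Compound III 300 nM), with CaCCinh-A01 and Chicago Sky Blue present. Enteroids had 18-24 h compound exposure at 37 °C; activity given as % of the triple-combination corrector/potentiator reference response.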

The conditions of series [1]: amide bond.

CFTR, sequence (P13569 with tags, fused parts or gaps DEL508-508): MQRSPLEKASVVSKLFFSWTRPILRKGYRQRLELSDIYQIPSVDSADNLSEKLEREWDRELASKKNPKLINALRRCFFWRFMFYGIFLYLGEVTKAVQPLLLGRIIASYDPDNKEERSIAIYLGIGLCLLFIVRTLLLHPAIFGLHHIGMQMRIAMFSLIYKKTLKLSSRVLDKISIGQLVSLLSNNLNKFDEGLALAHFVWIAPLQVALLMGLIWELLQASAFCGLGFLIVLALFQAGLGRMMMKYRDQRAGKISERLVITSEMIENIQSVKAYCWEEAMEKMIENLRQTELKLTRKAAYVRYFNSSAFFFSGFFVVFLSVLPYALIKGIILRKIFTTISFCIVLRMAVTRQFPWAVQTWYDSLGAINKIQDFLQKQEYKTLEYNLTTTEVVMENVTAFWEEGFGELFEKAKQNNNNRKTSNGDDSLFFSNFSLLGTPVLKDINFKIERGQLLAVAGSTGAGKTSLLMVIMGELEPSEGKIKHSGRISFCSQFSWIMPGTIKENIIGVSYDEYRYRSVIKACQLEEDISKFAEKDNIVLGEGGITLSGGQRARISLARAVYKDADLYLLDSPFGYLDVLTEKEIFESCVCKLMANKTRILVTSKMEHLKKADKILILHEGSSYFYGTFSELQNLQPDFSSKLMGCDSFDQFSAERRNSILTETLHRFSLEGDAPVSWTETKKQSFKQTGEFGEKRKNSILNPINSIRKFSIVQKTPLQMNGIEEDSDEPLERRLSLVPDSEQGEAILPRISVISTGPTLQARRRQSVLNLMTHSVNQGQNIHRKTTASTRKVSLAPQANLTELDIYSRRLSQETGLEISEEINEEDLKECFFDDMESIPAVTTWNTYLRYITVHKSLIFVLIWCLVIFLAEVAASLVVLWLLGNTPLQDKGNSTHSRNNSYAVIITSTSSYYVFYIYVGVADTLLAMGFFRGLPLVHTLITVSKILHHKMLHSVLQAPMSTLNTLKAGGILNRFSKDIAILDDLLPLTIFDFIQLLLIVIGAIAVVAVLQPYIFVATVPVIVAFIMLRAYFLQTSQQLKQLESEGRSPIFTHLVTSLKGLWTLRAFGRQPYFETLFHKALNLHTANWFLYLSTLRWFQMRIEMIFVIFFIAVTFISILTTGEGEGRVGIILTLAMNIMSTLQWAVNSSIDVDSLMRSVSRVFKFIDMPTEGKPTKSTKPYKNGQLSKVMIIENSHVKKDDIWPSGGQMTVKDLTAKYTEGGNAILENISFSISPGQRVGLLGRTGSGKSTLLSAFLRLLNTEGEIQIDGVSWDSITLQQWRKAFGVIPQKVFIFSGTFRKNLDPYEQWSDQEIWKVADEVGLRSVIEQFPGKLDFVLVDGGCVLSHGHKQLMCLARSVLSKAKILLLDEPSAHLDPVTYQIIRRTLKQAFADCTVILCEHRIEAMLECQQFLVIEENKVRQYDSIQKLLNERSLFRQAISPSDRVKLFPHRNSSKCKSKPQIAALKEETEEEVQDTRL

On to `Cc1cccc(C)c1-c1nc2nc(c1C)OC[C@@H](CCC(C)(C)O)N(C1CC3(CC3)C1)C(=O)c1cccc(c1)S(=O)(=O)N2` [Compound 106, (11R)-6-(2,6-dimethylphenyl)-11-(3-hydroxy-3-methyl-butyl)-7-methyl-2,2-dioxo-12-spiro[2.3]hexan-5-yl-9-oxa-2λ^6-thia-3,5,12,19-tetrazatricyclo[12.3.1.14,8]nonadeca-1(18),4(19),5,7,14,16-hexaen-13-one], for which the “Ent. B Max Activity” value at CFTR was “++ (++ is 30-60%)”. Further, on CFTR (read-out: Ent. B EC50), the EC50 was in the range of 1 to 3 µM. Further, the ring closure, isolated yield in series [1] (from Cc1cccc(C)c1-c1nc(NS(=O)(=O)c2cccc(C(=O)O)c2)nc(OC[C@@H](CCC(C)(C)O)NC2CC3(CC3)C2)c1C, 13-membered ring, T3P/TEA, DMF/EtOAc, 51.6 mM, 17.0 h) turned out to be 31%.

Turning to `CCc1c(Cl)nc2nc1Oc1cccc(c1)C(=O)Nc1cccc(c1)S(=O)(=O)N2`, the ring closure, isolated yield in series [1] (from CCc1c(Cl)nc(NS(=O)(=O)c2cccc(N)c2)nc1Oc1cccc(C(=O)O)c1, 14-membered ring, HATU/DIEA, DMF, 53.0 mM, 0.33 h, 2 steps) was 19%; in series [1] (from CCc1c(Cl)nc(NS(=O)(=O)c2cccc(N)c2)nc1Oc1cccc(C(=O)O)c1, 14-membered ring, HATU/DIEA, DMF, 50.0 °C, 2.5 h, 4 steps) it was 8%.
